# In patent US20130296430A1, “COMPOSITIONS AND METHODS FOR TREATING AUTISM AND AUTISM SPECTRUM DISORDER” (priority 2012, published 2013):
# “Also recorded” adds a separate entry of the source.
# Test system: children with autism
# Test: 12-week double-blind randomized placebo-controlled study of NAC: Aberrant Behavior Checklist (ABC)
# Assay type: in vivo, human
# Excerpt: The Aberrant Behavior Checklist (ABC) is a standardized scale comprising 58 items for assessing problem behavior in subjects with mental retardation and developmental disabilities (Aman, M. et al., Am J Ment Defic. 89:492-502 (1985)). The checklist is empirically derived from ratings on approximately 1000 subjects, and the items resolve into five subscales: irritability, lethargy/social withdrawal, stereotypic behavior, hyperactivity, and inappropriate speech. High scores indicate more severe behavioral symptoms.
# A 12-week, double-blind randomized, placebo-controlled study of NAC in children with autism was conducted in the Autism & Developmental Disabilities Clinic in the Division of Child & Adolescent Psychiatry at Stanford University Medical Center. The recruitment period started in March 2009 and ended in September 2010. Subjects with and without mental retardation were included. After obtaining informed consent, subjects were screened and inclusion and exclusion criteria were assessed. No changes in eligibility criteria were applied throughout the study. This investigation was approved by the institutional review board at Stanford University School of Medicine. An investigational new drug application (IND#100905) was filed with the Food and Drug Administration, and the study was registered in National Institutes of Health at ClinicalTrials.gov (identifier number NCT00627705).
# After the screening phase, baseline measures were obtained from subjects continuing to meet inclusion and exclusion criteria. Subjects were then randomized to either placebo or active based on age and gender. As NAC is a nutritional supplement, the quality control is predictably variable and therefore purity is not as stringent as prescription medications. Therefore, in the present study, the stability of the compound was ascertained and the integrity of the active agent was protected by packaging each NAC doses in individual pockets. The active compound and matching placebo were provided by BioAdvantex Pharma, Inc. (Mississauga, Ontario, Canada). […] Subjects randomized to the active drug were initiated at the dose of 900 mg every day for the first 4 weeks, then 900 mg twice daily for 4 weeks and 900 mg three times daily for 4 weeks. (This dose selection was based on previously published studies for other psychiatric conditions (Grant, J. et al., Arch Gen Psychiatry, 66:468-475 (2009); Berk, M. et al., Biol Psychiatry, 64:361-368 (2008); Berk, M. et al., Bio Psychiatry, 64:468-475 (2008)) and the previous experience of our group in studies of children with cystic fibrosis). Alternatively, subjects were initiated at the dose of 900 mg per day, 1,800 mg per day, or 2,700 mg per day of NAC. Alternatively, the subjects were initiated at the dose ranging from 900 mg per day to 2,700 mg per day of NAC.
# If a subject could not tolerate a specific dose, s/he would be maintained at the highest tolerated dose. Subjects were evaluated at baseline, week 4, week 8 and week 12. The Aberrant Behavioral Checklist (ABC) (Aman, M. et al., Am J Ment Defic. 89:492-502 (1985)), the Clinical Global Impressions (CGI) (Guy, W., ECDEU Assessment Manual for Psychopharmacology, Rockville, Md., U.S. Department of Health, Education, and Welfare (1976)), and the Dosage Record and Treatment Emergent Symptom Scale (DOTES) (Guy, W., 1976, ECDEU Assessment Manual for Psychopharmacology, Rockville, Md., U.S. Department of Health, Education, and Welfare) were obtained in each visit. Additional secondary measures were obtained at baseline and at week 12 and included the social responsiveness scale (SRS) (Constantino, J. et al., J. Dev Behav Pediatr., 21:2-11 (2000); Constantino, J. et al., J Autism Dev Disord., 33:427-433 (2003)), and the repetitive behavior scale-revised (RBS-R) (Bodfish, J. et al., The Repetitive Behavior Scale: A test manual (1998)). […]
# [1] = Baseline (before treatment), NAC group n = 15
# [2] = all randomized participants, p>0.100
# [3] = standardized mean difference NAC vs placebo at Week 12
structure (smiles),measurement,setting,value
"CC(=O)N[C@@H](CS)C(=O)O [NAC, N-acetylcysteine]","ABC hyperactivity, Mean (SD)",[1],23.4 (9.0)
same,"ABC inappropriate speech, Mean (SD)",[1],4.9 (3.2)
same,"ABC irritability, Mean (SD)",[1],16.9 (7.9)
same,"ABC lethargy, Mean (SD)",[1],15.2 (9.5)
same,"ABC stereotypy, Mean (SD)",[1],9.1 (5.5)
same,"ABC total, Mean (SD)",[1],69.7 (24.7)
same,"ABC hyperactivity, Mean (SD)","Week 12, NAC n = 14",12.4 (11.4)
same,"ABC inappropriate speech, Mean (SD)","Week 12, NAC n = 14",2.5 (2.6)
same,"ABC irritability, Mean (SD)","Week 12, NAC n = 14",7.2 (5.7)
same,"ABC lethargy, Mean (SD)","Week 12, NAC n = 14",11.0 (9.4)
same,"ABC stereotypy, Mean (SD)","Week 12, NAC n = 14",5.6 (5.7)
same,"ABC total, Mean (SD)","Week 12, NAC n = 14, 900 mg daily 4 wk, twice daily 4 wk, three times daily 4 wk, high scores = more severe",38.7 (24.1)
same,"ABC-Irritability, treatment effect (Group x Time)","all randomized participants, NAC vs placebo, effects beginning in week 4, continuing through week 8 and 12, p<0.001",significantly improved irritability; also recorded: significant behavioral improvements
same,"ABC-Total, treatment effect (Group x Time)","all randomized participants, NAC vs placebo, from week 4 through week 12, p=0.010",significant effects; also recorded: significant behavioral improvements
same,"ABC-Stereotypy, treatment effect","all randomized participants, NAC vs placebo, p=0.096",marginally significant improvement
same,"ABC hyperactivity subscale, treatment effect",[2],no significant treatment effects
same,"ABC inappropriate speech subscale, treatment effect",[2],no significant treatment effects
same,"ABC lethargy subscale, treatment effect",[2],no significant treatment effects
same,"ABC inappropriate speech, Cohen's d",[3],.35
same,"ABC irritability, Cohen's d",[3],.72
same,"ABC lethargy, Cohen's d",[3],−.32
same,"ABC stereotypy, Cohen's d",[3],.37
same,"ABC total, Cohen's d",[3],.63
